Experimental data from US20240317727A1 (Duke University, priority 2018, published 2024).

Target: T1, recombinant HSF1 DNA-binding domain (DBD) (Homo sapiens, UniProt Q00613)
T1 sequence (Q00613 15-120): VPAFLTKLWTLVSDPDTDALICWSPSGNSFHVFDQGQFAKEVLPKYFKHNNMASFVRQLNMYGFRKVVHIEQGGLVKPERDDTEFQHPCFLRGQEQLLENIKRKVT
Assay: Differential Scanning Fluorimetry (DSF), HSF1 DBD melting temperature
Conditions: 5 μM HSF1 DBD, 25PM Compound, positive = stabilizes, negative = destabilizes HSF1

| SMILES | ΔTm at 25 µM (Table 1) [°C] | ΔTm at 25 µM (Table 3) [°C] |
| --- | --- | --- |
| COc1cc(C(=O)Oc2c(Cl)cc(Cl)cc2/C=N\c2cccc(C(F)(F)F)c2)cc(OC)c1OC [Compound 0070] | -7.24 | – |
| Cc1ccc(C(=O)/C=C(\c2ccccc2)N2CCCCC2)cc1 [Compound 0071] | -6.24 | – |
| CCOC(=O)CCc1ccc(Oc2c([N+](=O)[O-])cc(C(F)(F)F)cc2[N+](=O)[O-])cc1 [Compound 0072] | 3.39 | – |
| CC(C)(C)CC(C)(C)c1ccc(O)c(Cc2ccc(Cl)cc2Cl)c1 [Compound 0073] | 2.6 | – |
| O=C(Nc1cc(Cl)cc(Cl)c1)Nc1cc(-c2cccs2)n[nH]1 [Compound 0074] | 2.61 | – |
| Cc1ccc(NC(=O)Nc2ccc(Br)c(C(F)(F)F)c2)cc1 [Compound 0075, 1-(4-bromo-3-(trifluoromethyl)phenyl)-3-(p-tolyl)urea] | 2.61 | – |
| Cc1ccc(NC(=O)Nc2ccc(Br)c(C(F)(F)F)c2)cc1 [Compound 075, 1-(4-bromo-3-(trifluoromethyl)phenyl)-3-(p-tolyl)urea] | – | 2.61 |
| O=C(Nc1ccc(F)cc1)Nc1cccc([N+](=O)[O-])c1 [Compound 0076, 1-(4-fluorophenyl)-3-(3-nitrophenyl)urea] | -7.23 | – |
| O=C(Nc1ccc(F)cc1)Nc1cccc([N+](=O)[O-])c1 [Compound 076, 1-(4-fluorophenyl)-3-(3-nitrophenyl)urea] | – | 2.61 |
| O=[N+]([O-])c1cc(C(F)(F)F)cc([N+](=O)[O-])c1Oc1ccc(I)cc1 [Compound 0077] | 2.5 | – |
| O=C(Nc1cccc(Cl)c1)Nc1cccc([N+](=O)[O-])c1 [Compound 0078, 1-(3-chlorophenyl)-3-(3-nitrophenyl)urea] | 2.25 | – |
| O=C(Nc1cccc(Cl)c1)Nc1cccc([N+](=O)[O-])c1 [Compound 078, 1-(3-chlorophenyl)-3-(3-nitrophenyl)urea] | – | 2.5 |
| O=C(Nc1ccc(Cl)c([N+](=O)[O-])c1)Nc1ccc(F)cc1C1(C(F)(F)F)N=N1 [Compound 0079, 1-(4-chloro-3-nitro-phenyl)-3-[4-fluoro-2-[3-(trifluoromethyl)diazirin-3-yl]phenyl]urea] | 2.25 | – |
| O=C(Nc1ccc(Cl)c([N+](=O)[O-])c1)Nc1ccc(F)cc1C1(C(F)(F)F)N=N1 [Compound 079, 1-(4-chloro-3-nitro-phenyl)-3-[4-fluoro-2-[3-(trifluoromethyl)diazirin-3-yl]phenyl]urea] | – | 2.25 |
| O=[N+]([O-])c1cc(NC2=NS(=O)(=O)N=C2Nc2ccc(F)cc2)ccc1Cl [Compound 0080, N3-(4-chloro-3-nitro-phenyl)-N4-(4-fluorophenyl)-1,1-dioxo-1,2,5-thiadiazole-3,4-diamine] | 1.6 | – |
| O=[N+]([O-])c1cc(NC2=NS(=O)(=O)N=C2Nc2ccc(F)cc2)ccc1Cl [Compound 080, N3-(4-chloro-3-nitro-phenyl)-N4-(4-fluorophenyl)-1,1-dioxo-1,2,5-thiadiazole-3,4-diamine] | – | 1.6 |
| c1ccc(-c2ccc(C(c3ccccc3)n3ccnc3)cc2)cc1 (centres unmarked) [Compound 0081] | -3.6 | – |
| Cc1ccc(/C=N/NC(=O)c2c[nH]c3ccccc23)s1 [Compound 0082] | 3.9 | – |
| N#Cc1cc(NC(=O)Nc2ccc(F)cc2)ccc1Cl [Compound 0083, 1-(4-chloro-3-cyano-phenyl)-3-(4-fluorophenyl) urea] | 2 | – |
| N#Cc1cc(NC(=O)Nc2ccc(F)cc2)ccc1Cl [Compound 083, 1-(4-chloro-3-cyano-phenyl)-3-(4-fluorophenyl) urea] | – | 2 |

| SMILES | ΔTm at 25 µM (Table 1) [°C] | ΔTm at 25 µM (Table 3) [°C] |
| --- | --- | --- |
| CC(C)(C)c1ccc(-c2nnc(SCC(=O)NCc3ccccc3)n2-c2ccccc2)cc1 [Compound 0084] | -8.96 | – |
| O=C(Nc1ccccc1)Nc1ccc(OC(F)(F)F)cc1 [Compound 0085] | 3.26 | – |
| O=C(O)C1=CC(=C(c2ccc(O)c(C(=O)O)c2)c2ccc(O)c(C(=O)O)c2)C=CC1=O [Compound 0086] | -11.5 | – |
| CCOc1ccc(S(=O)(=O)NCc2ccccn2)c2ccccc12 [Compound 0087] | -9.24 | – |
| COc1cc2cc(N(C)CCCNC(=O)C3CCCO3)cc(N)c2cc1OC (centres unmarked) [Compound 0088] | -3.02 | – |
| COc1ccc(CSc2ccc([N+](=O)[O-])c3nonc23)cc1 [Compound 0089] | -5.73 | – |
| O=C(Nc1ccc(F)cc1)Nc1ccc(Cl)nc1 [Compound 0090, 1-(6-chloro-3-pyridyl)-3-(4-fluorophenyl) urea] | 0.67 | – |
| O=C(Nc1ccc(F)cc1)Nc1ccc(Cl)nc1 [Compound 090, 1-(6-chloro-3-pyridyl)-3-(4-fluorophenyl) urea] | – | 0.67 |
| O=C(Nc1ccccc1)Nc1cccc(Cl)c1 [Compound 0091, 1-(3-chlorophenyl)-3-phenylurea] | 2.5 | – |
| O=C(Nc1ccccc1)Nc1cccc(Cl)c1 [Compound 091, 1-(3-chlorophenyl)-3-phenylurea] | – | 2.5 |
| O=c1c(Nc2ccc(F)c(F)c2)c(Nc2ccc(Cl)c(C(F)(F)F)c2)c1=O [Compound 0092, 3-[4-chloro-3-(trifluoromethyl)anilino]-4-(3,4-difluoroanilino)cyclobut-3-ene-1,2-dione] | 2.33 | – |
| O=c1c(Nc2ccc(F)c(F)c2)c(Nc2ccc(Cl)c(C(F)(F)F)c2)c1=O [Compound 092, 3-[4-chloro-3-(trifluoromethyl)anilino]-4-(3,4-difluoroanilino)cyclobut-3-ene-1,2-dione] | – | 2.33 |
| Cc1cc([N+](=O)[O-])cc([N+](=O)[O-])c1Sc1ncc2ccccn12 [Compound 0093] | -3.44 | – |
| O=C(Nc1ccc(Cl)c([N+](=O)[O-])c1)Nc1ccc(F)c(C2(C(F)(F)F)N=N2)c1 [Compound 0094, 1-(4-chloro-3-nitro-phenyl)-3-[4-fluoro-3-[3-(trifluoromethyl)diazirin-3-yl]phenyl]urea] | 2.92 | – |
| O=C(Nc1ccc(Cl)c([N+](=O)[O-])c1)Nc1ccc(F)c(C2(C(F)(F)F)N=N2)c1 [Compound 094, 1-(4-chloro-3-nitro-phenyl)-3-[4-fluoro-3-[3-(trifluoromethyl)diazirin-3-yl]phenyl]urea] | – | 2.92 |
| CC(=O)Nc1cc(NC(=O)Nc2ccc(F)cc2)ccc1Cl [Compound 0095, N-[2-chloro-5-[(4-fluorophenyl)carbamoylamino]phenyl]acetamide] | 0.67 | – |
| CC(=O)Nc1cc(NC(=O)Nc2ccc(F)cc2)ccc1Cl [Compound 095, N-[2-chloro-5-[(4-fluorophenyl)carbamoylamino]phenyl]acetamide] | – | 0.67 |
| O=C(Nc1ccc(F)cc1)Nc1ccc(Cl)cc1 [Compound 0096, 1-(4-chlorophenyl)-3-(4-fluorophenyl)urea] | 2.61 | – |
| O=C(Nc1ccc(F)cc1)Nc1ccc(Cl)cc1 [Compound 096, 1-(4-chlorophenyl)-3-(4-fluorophenyl)urea] | – | 2.61 |
| O=C(Nc1ccc(S(=O)(=O)N2CCCCC2)cc1)c1cccc(Cl)c1 [Compound 0097] | 3.43 | – |

| SMILES | ΔTm at 25 µM (Table 1) [°C] | ΔTm at 25 µM (Table 3) [°C] |
| --- | --- | --- |
| O=C(COc1ccc(Cl)cc1Cl)N/N=C/c1c[nH]c2ccccc12 [Compound 0098] | 4.93 | – |
| CCN1C(=O)/C(=C\c2cc([N+](=O)[O-])cc(Br)c2O)SC1=S [Compound 0099] | -6.74 | – |
| Cc1c2oc3c(C)c(O)c(I)cc3c(-c3c(Cl)c(Cl)c(Cl)c(Cl)c3C(=O)O)c-2cc(I)c1=O [Compound 0100] | -7.52 | – |
| O=C(Nc1ccc(F)c(F)c1)Nc1ccc(Cl)c(C(F)(F)F)c1 [Compound 0101, 1-(4-chloro-3-(trifluoromethyl)phenyl)-3-(3,4-difluorophenyl)urea] | 3.33 | – |
| O=[N+]([O-])c1cc(C(F)(F)F)cc([N+](=O)[O-])c1Oc1ccc(C2CCCCC2)cc1 [Compound 0102] | -6.23 | – |
| O=C(Nc1ccc(F)cc1)Nc1ccc(Cl)c(O)c1 [Compound 0103, 1-(4-chloro-3-hydroxyphenyl)-3-(4-fluorophenyl)urea] | 4.7 | – |
| O=C(Nc1cc(Cl)ccc1O)c1ccccc1CSc1ccc(Cl)cc1 [Compound 0104] | 3.27 | – |
| CC(C)(C)c1ccc(NC(=O)Nc2ccc(Cl)c([N+](=O)[O-])c2)cc1 [Compound 0105, 1-(4-(tert-butyl)phenyl)-3-(4-chloro-3-nitrophenyl)urea] | 3.2 | – |
| O=C(Nc1cccc([N+](=O)[O-])c1)Nc1ccc(F)cc1C(=O)O [Compound 0106, 5-fluoro-2-(3-(3-nitrophenyl)ureido)benzoic acid] | 3.28 | – |
| N#C/C(=C(/Oc1ccc(Cl)cc1Cl)C(F)(F)F)c1ccccc1 [Compound 0107] | -4.4 | – |
| CCOC(=O)c1sc(Sc2ccc([N+](=O)[O-])cc2[N+](=O)[O-])nc1C [Compound 0108] | -4.19 | – |
| CC(C)c1ccc2c(c1)c(SC(C)(C)C)c(CC(C)(C)C(=O)O)n2Cc1ccc(Cl)cc1 [Compound 0109] | -9.02 | – |
| Cc1ccc(NC(=O)Nc2cccc([N+](=O)[O-])c2)cc1 [Compound 0110, 1-(3-nitrophenyl)-3-(p-tolyl)urea] | 2.94 | – |
| Cc1cc(Oc2c([N+](=O)[O-])cc(C(F)(F)F)cc2[N+](=O)[O-])c2c(Cl)ccc(C)c2n1 [Compound 0111] | -5.21 | – |
| O=c1c(Nc2ccc(F)cc2)c(Nc2ccc(Cl)c(S(=O)(=O)C(F)(F)F)c2)c1=O [Compound 0112, 3-[4-chloro-3-(trifluoromethylsulfonyl)anilino]-4-(4-fluoroanilino)cyclobut-3-ene-1,2-dione] | 2.08 | – |
| Cc1ccc(NC(=O)Nc2ccc(Cl)cc2)cc1 [Compound 0113, 1-(4-chlorophenyl)-3-(p-tolyl)urea] | 2.28 | – |
| Cc1cc(/C=N/Nc2nc3ccccc3s2)cc(C)c1O [Compound 0114] | 0.49 | – |
| Cc1ccc(CNC(=O)CSc2nnc(-c3ccccc3)n2-c2ccc(C)c(C)c2)cc1 [Compound 0115] | -9.91 | – |
| CSc1ccc(Oc2c([N+](=O)[O-])cc(C(F)(F)F)cc2[N+](=O)[O-])cc1 [Compound 0116] | -5.56 | – |
